Test results as given in PubChem BioAssay (NCI).
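Compound exposure: 48 hours, 5 concentrations, 96-well plates. At the GI50, growth is halved. TGI marks complete inhibition of growth.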

What was measured:
Assay in all cases: NCI anticancer screen, dose series, 48 h
786-0 renal = tested on: 786-0 renal
A498 renal = tested on: A498 renal
ACHN renal = tested on: ACHN renal
BT-549 breast = tested on: BT-549 breast
CAKI-1 renal = tested on: CAKI-1 renal
CCRF-CEM leukemia = tested on: CCRF-CEM leukemia
COLO 205 colon = tested on: COLO 205 colon
DU-145 prostate = tested on: DU-145 prostate
EKVX NSCLC = tested on: EKVX NSCLC
HCC-2998 colon = tested on: HCC-2998 colon
HCT-116 colon = tested on: HCT-116 colon
HCT-15 colon = tested on: HCT-15 colon
HL-60(TB) leukemia = tested on: HL-60(TB) leukemia
HOP-62 NSCLC = tested on: HOP-62 NSCLC
HOP-92 NSCLC = tested on: HOP-92 NSCLC
HS 578T breast = tested on: HS 578T breast
HT29 colon = tested on: HT29 colon
IGROV1 ovarian = tested on: IGROV1 ovarian
K-562 leukemia = tested on: K-562 leukemia
KM12 colon = tested on: KM12 colon
LOX IMVI melanoma = tested on: LOX IMVI melanoma
M14 melanoma = tested on: M14 melanoma
MALME-3M melanoma = tested on: MALME-3M melanoma
MCF7 breast = tested on: MCF7 breast
MDA-MB-231 breast = tested on: MDA-MB-231 breast
MDA-MB-435 = tested on: MDA-MB-435
MOLT-4 leukemia = tested on: MOLT-4 leukemia
NCI-H226 lung = tested on: NCI-H226 lung
NCI-H23 lung = tested on: NCI-H23 lung
NCI-H460 lung = tested on: NCI-H460 lung
NCI-H522 lung = tested on: NCI-H522 lung
NCI/ADR-RES ovarian = tested on: NCI/ADR-RES ovarian
OVCAR-3 ovarian = tested on: OVCAR-3 ovarian
OVCAR-4 ovarian = tested on: OVCAR-4 ovarian
OVCAR-5 ovarian = tested on: OVCAR-5 ovarian
OVCAR-8 ovarian = tested on: OVCAR-8 ovarian
PC-3 prostate = tested on: PC-3 prostate
RPMI-8226 leukemia = tested on: RPMI-8226 leukemia
RXF 393 renal = tested on: RXF 393 renal
SF-268 CNS = tested on: SF-268 CNS
SF-295 CNS = tested on: SF-295 CNS
SF-539 CNS = tested on: SF-539 CNS
SK-MEL-2 melanoma = tested on: SK-MEL-2 melanoma
SK-MEL-28 melanoma = tested on: SK-MEL-28 melanoma
SK-MEL-5 melanoma = tested on: SK-MEL-5 melanoma
SK-OV-3 ovarian = tested on: SK-OV-3 ovarian
SN12C renal = tested on: SN12C renal
SNB-19 CNS = tested on: SNB-19 CNS
SNB-75 CNS = tested on: SNB-75 CNS
SR leukemia = tested on: SR leukemia
SW-620 colon = tested on: SW-620 colon
T-47D breast = tested on: T-47D breast
TK-10 renal = tested on: TK-10 renal
U251 CNS = tested on: U251 CNS
UACC-257 melanoma = tested on: UACC-257 melanoma
UACC-62 melanoma = tested on: UACC-62 melanoma
UO-31 renal = tested on: UO-31 renal

## COC1=C(C)C(=O)c2c(c(CCCl)c3n2CCC3O)C1=O (centres undefined)
786-0 renal
  GI50: 0.81 µM
  TGI: 6.5 µM
A498 renal
  GI50: 0.145 µM
  TGI: 0.313 µM
ACHN renal
  GI50: 0.327 µM
  TGI: 6.83 µM
BT-549 breast
  GI50: 0.247 µM
  TGI: 1.09 µM
CAKI-1 renal
  GI50: 1.22 µM
  TGI: 3.95 µM
CCRF-CEM leukemia
  GI50: 4.6 µM
  TGI: > 72.2 µM
COLO 205 colon
  GI50: 0.203 µM
  TGI: 0.72 µM
DU-145 prostate
  GI50: 0.039 µM
  TGI: 1.9 µM
EKVX NSCLC
  GI50: 2.3 µM
  TGI: 7.69 µM
HCC-2998 colon
  GI50: 0.348 µM
  TGI: 1.57 µM
HCT-116 colon
  GI50: 1.53 µM
  TGI: > 100 µM
HCT-15 colon
  GI50: 0.22 µM
  TGI: 4.4 µM
HL-60(TB) leukemia
  GI50: 3.34 µM
  TGI: 30.4 µM
HOP-62 NSCLC
  GI50: 0.235 µM
  TGI: 1.83 µM
HOP-92 NSCLC
  GI50: 6.21 µM
  TGI: 24.7 µM
HS 578T breast
  GI50: 1.06 µM
  TGI: 6.65 µM
HT29 colon
  GI50: 0.197 µM
  TGI: 0.67 µM
IGROV1 ovarian
  GI50: 2.59 µM
  TGI: 12.4 µM
K-562 leukemia
  GI50: 2.21 µM
  TGI: > 40.7 µM
KM12 colon
  GI50: 1.37 µM
  TGI: 6.73 µM
LOX IMVI melanoma
  GI50: 0.592 µM
  TGI: 5.23 µM
M14 melanoma
  GI50: 0.264 µM
  TGI: 1.21 µM
MALME-3M melanoma
  GI50: 0.23 µM
  TGI: 0.584 µM
MCF7 breast
  GI50: 0.125 µM
  TGI: 1.9 µM
MDA-MB-231 breast
  GI50: 21.8 µM
  TGI: 83 µM
MDA-MB-435
  GI50: 1.24 µM
  TGI: 2.79 µM
MOLT-4 leukemia
  GI50: 7.37 µM
  TGI: 99.4 µM
NCI-H226 lung
  GI50: 0.764 µM
  TGI: 5.5 µM
NCI-H23 lung
  GI50: 0.133 µM
  TGI: 0.799 µM
NCI-H460 lung
  GI50: 0.178 µM
  TGI: 2.79 µM
NCI-H522 lung
  GI50: 0.224 µM
  TGI: 1.17 µM
NCI/ADR-RES ovarian
  GI50: 0.872 µM
  TGI: 7.61 µM
OVCAR-3 ovarian
  GI50: 2.19 µM
  TGI: 6.72 µM
OVCAR-4 ovarian
  GI50: 9.36 µM
  TGI: 39 µM
OVCAR-5 ovarian
  GI50: 0.411 µM
  TGI: 7.72 µM
OVCAR-8 ovarian
  GI50: 1.78 µM
  TGI: 23.9 µM
PC-3 prostate
  GI50: 1.42 µM
  TGI: 10.8 µM
RPMI-8226 leukemia
  GI50: 3.08 µM
  TGI: 21.8 µM
RXF 393 renal
  GI50: 0.226 µM
  TGI: 0.597 µM
SF-268 CNS
  GI50: 0.533 µM
  TGI: 20 µM
SF-295 CNS
  GI50: 0.237 µM
  TGI: 0.779 µM
SF-539 CNS
  GI50: 0.302 µM
  TGI: 1.16 µM
SK-MEL-2 melanoma
  GI50: 0.376 µM
  TGI: 1.57 µM
SK-MEL-28 melanoma
  GI50: 0.811 µM
  TGI: 3.85 µM
SK-MEL-5 melanoma
  GI50: 0.148 µM
  TGI: 0.291 µM
SK-OV-3 ovarian
  GI50: 0.412 µM
  TGI: 3.37 µM
SN12C renal
  GI50: 0.694 µM
  TGI: 14.2 µM
SNB-19 CNS
  GI50: 0.407 µM
  TGI: 13.6 µM
SNB-75 CNS
  GI50: 0.191 µM
  TGI: 0.628 µM
SR leukemia
  GI50: 0.409 µM
  TGI: > 26.8 µM
SW-620 colon
  GI50: 1.09 µM
  TGI: 15.8 µM
T-47D breast
  GI50: 16.3 µM
  TGI: > 82.9 µM
TK-10 renal
  GI50: 0.296 µM
  TGI: 0.763 µM
U251 CNS
  GI50: 0.36 µM
  TGI: 11.9 µM
UACC-257 melanoma
  GI50: 0.839 µM
  TGI: 3.45 µM
UACC-62 melanoma
  GI50: 0.319 µM
  TGI: 1.28 µM
UO-31 renal
  GI50: 0.545 µM
  TGI: 2.42 µM
